This is an account of results in patent US20260097137A1, “FLUORESCENT PROBE COMPOUNDS FOR TUMOR TARGETING IMAGING, AND SYNTHESIS METHOD THEREFOR” (HEBEI MEDICAL UNIVERSITY, priority 2023, published 2026).

Usually Kd stands for the equilibrium constant for the complex coming apart.

For series [1], the target named is T1, FRα (in KB cells) (Homo sapiens, UniProt P15328).
T1 construct: endogenous in cells; host or cells: KB cells
Briefly: In vitro fluorescence microscopy assay, FR+ KB cells. The format is cell-based. Particulars: probe 1 μM, 30 minutes, excitation 775 nm. As to the method:
(§1) To investigate the targeting capability of compound GT-NIR-1 toward folate receptor-expressing cells and its subcellular localization, FR^+ KB cells, FR^− A549 cells, FR^+ M2-type macrophages, and FR^− M1-type macrophages were seeded in confocal-specific culture dishes at a density of 3×10^5 cells per dish. The cells were cultured at 37° C. under 5% CO2 for 24 hours. Subsequently, the cells were incubated with GT-NIR-1 (1 μM) for 30 minutes. For competitive binding assays, KB cells and M2 macrophages were co-treated with a 100-fold excess of folic acid (100 μM) and GT-NIR-1 (1 μM) for 30 minutes. After incubation, all cells were washed three times with PBS (pH=7.4). Fluorescence was excited at 775 nm, and cellular fluorescence imaging was observed using confocal fluorescence microscopy (FIG. 4 and FIG. 5).

Series [2] has as its target T2, FRβ (in M2 macrophages) (Homo sapiens, UniProt P14207).
T2 construct: endogenous in cells
Description: In vitro fluorescence microscopy assay, FR+ M2-type macrophages. The format is cell-based. Conditions: probe 1 μM, 30 minutes, excitation 775 nm. As to the method:
as §1

The subject of series [3] is A549 cells. Description: In vitro fluorescence microscopy assay, FR- A549 cells. The format is cell-based. Particulars: probe 1 μM, 30 minutes. As to the method: as §1
Series [4] concerns M1 macrophages. Description: In vitro fluorescence microscopy assay, FR- M1-type macrophages. The format is cell-based. Conditions: probe 1 μM, 30 minutes. Here is the method:
as §1

For series [5], the system named is FR-positive KB xenografts. Briefly: In vivo small animal imaging, FR+ KB cell xenografts. Set-up: species or system mice. Particulars: KB xenograft competition group, 100× excess folic acid. Here is the method:
(§2) Subcutaneous tumor models were established using FR^+ KB cell xenografts and FR A549 cell xenografts. The A549 xenograft model served as the negative control group, while a competition group was included to validate the in vivo targeting specificity of the probes toward tissues with high folate receptor expression. When tumor volumes reached 300-400 mm^3, the following treatments were administered via tail vein injection: • Blank control group: 100 μL saline; • Experimental groups: respective probes (10 nmol, dissolved in 100 μL saline); • Competition group: pre-injection of 100× excess folic acid ([…] in 100 μL saline) 15 minutes prior to probe administration (10 nmol in 100 μL saline).
(§3) Whole-body fluorescence imaging was performed using an IVIS imaging system with 750-800 nm excitation light at 2, 4, 8, 12, 24, and 48 hours post-injection. At 8 hours after systemic imaging, the mice were euthanized, and organs were collected for ex vivo tissue biodistribution analysis using the IVIS system.
The in vivo imaging capability of the GT-IR series compounds was evaluated in the FR^+ KB cell xenograft model following the same experimental procedure. Imaging was performed at 8 hours post-injection using the IVIS system with 750-800 nm excitation light. After euthanasia, organs were collected and subjected to ex vivo biodistribution analysis.

For series [6], the system named is FR-negative A549 xenograft. Description: In vivo small animal imaging, FR-negative A549 cell xenografts. Set-up: species or system mice. Conditions: A549 xenograft negative control group, 10 nmol tail vein. Here is the method:
as §2, §3

The target of series [7] is T3, FRα (Homo sapiens, UniProt P15328).
T3 construct: endogenous in cells; host or cells: KB cells
Briefly: In vitro affinity assay of GT-NIR series probes by flow cytometry, KB cells. Particulars: 500 nM, 1 hour, order GT-NIR-5 > GT-NIR-4 > GT-NIR-1. The format is cell-based. As to the method:
(§4) To compare the targeting affinity of different compounds in the GT-NIR series for folate receptors, FR^+ KB cells and M2 macrophages were seeded in 6-well plates at a density of 1×10^6 cells per well. After 24 hours of culture, the medium was replaced with folate-free fresh medium as a blank control. IR783 (500 nM) was added to exclude false-positive effects. Media containing GT-NIR series compounds (500 nM) were added to different wells and incubated for 1 hour. The cells were then digested with trypsin, washed three times with PBS (pH=7.4), and centrifuged (2000 rpm, 5 minutes) to remove unbound probes. The cells were resuspended in […] PBS, stored in light-protected BD Falcon tubes, and analyzed by flow cytometry. Statistical data were processed using FlowJo software (FIG. 6 and FIG. 7).
Background: Flow cytometry measures light scatter and fluorescence of single cells or particles in a stream.

The target of series [8] is T4, FRβ (Homo sapiens, UniProt P14207).
T4 construct: endogenous in cells
Description: In vitro affinity assay of GT-NIR series probes by flow cytometry, M2 macrophages. The format is cell-based. Particulars: 500 nM, 1 hour, order GT-NIR-5 > GT-NIR-4 > GT-NIR-1. As to the method:
as §4

Series [9] deals with tumors with high folate receptor expression. Particulars: e.g., ovarian cancer, non-small cell lung cancer; background statement; cited from earlier work.
Series [10] concerns the target folate receptors. Conditions: background statement; cited from earlier work.

T3 sequence (P15328 25-234): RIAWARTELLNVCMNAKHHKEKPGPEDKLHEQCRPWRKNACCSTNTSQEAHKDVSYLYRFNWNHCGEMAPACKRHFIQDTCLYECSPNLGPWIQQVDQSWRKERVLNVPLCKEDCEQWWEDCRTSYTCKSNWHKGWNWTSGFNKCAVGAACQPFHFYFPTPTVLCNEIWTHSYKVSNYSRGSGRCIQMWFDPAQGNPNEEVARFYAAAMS
T1 sequence (P15328 25-234): as above
T4 sequence (P14207 17-230, species assumed): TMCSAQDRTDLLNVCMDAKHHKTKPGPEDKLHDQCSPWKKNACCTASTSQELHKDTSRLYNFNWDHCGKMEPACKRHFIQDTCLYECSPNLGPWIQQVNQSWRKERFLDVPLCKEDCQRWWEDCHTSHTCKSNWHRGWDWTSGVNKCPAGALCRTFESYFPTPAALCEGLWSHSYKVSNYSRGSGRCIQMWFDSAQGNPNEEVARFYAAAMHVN
T2 sequence (P14207 17-230, species assumed): as above

With `CC1(C)C(/C=C/C2=C(Oc3ccc(C[C@H](NC(=O)CNC(=O)Cc4cc5c(=O)[nH]c(N)nc5[nH]4)C(=O)O)cc3)C(=C/C=C3/N(CCCCS(=O)(=O)O)c4ccccc4C3(C)C)/CCC2)=[N+](CCCCS(=O)(=O)[O-])c2ccccc21` [GT-NIR-1], the “cell entry / fluorescence imaging by confocal microscopy” value in [1] and in [2] was “successfully entered cells via targeting folate receptors” each time. Moreover, the “accumulation in folate receptor-negative cells” value in [3] and in series [4] was “no accumulation was observed” each time.

Regarding `CC1(C)C(/C=C/C2=C(Oc3ccc(C[C@H](NC(=O)c4ccc(CCCCc5cc6c(=O)[nH]c(N)nc6[nH]5)cc4)C(=O)O)cc3)C(=C/C=C3/N(CCCCS(=O)(=O)O)c4ccccc4C3(C)C)/CCC2)=[N+](CCCCS(=O)(=O)[O-])c2ccccc21` [GT-NIR-4], the “clearance from the body” value in [5] and in [6] was “rapidly cleared from the body” throughout. The “targeted tumor imaging, whole-body fluorescence” value in [5] and in series [6] was “no targeted tumor imaging was observed” each time.

With `CC1(C)C(/C=C/C2=C(Oc3ccc(C[C@H](NC(=O)c4ccc(CCCCc5cc6c(=O)[nH]c(N)nc6[nH]5)s4)C(=O)O)cc3)C(=C/C=C3/N(CCCCS(=O)(=O)O)c4ccccc4C3(C)C)/CCC2)=[N+](CCCCS(=O)(=O)O)c2ccccc21` [GT-NIR-5], in series [7], the “binding affinity for FRα (rank order within GT-NIR series)” value is recorded as “highest binding affinity”. The “binding affinity for FRβ (rank order within GT-NIR series)” value in series [8] was “highest binding affinity”.

Turning to `CC1(C)C(/C=C/C2=C(Oc3ccc(C[C@H](NC(=O)c4ccc(NCc5cnc6nc(N)[nH]c(=O)c6n5)cc4)C(=O)[O-])cc3)C(=C/C=C3\N(CCCCS(=O)(=O)[O-])c4ccc(S(=O)(=O)[O-])cc4C3(C)C)/CCC2)=[N+](CCCCS(=O)(=O)[O-])c2ccc(S(=O)(=O)[O-])cc21.[H+].[H+].[H+].[H+]` [OTL38], in series [9], the “tumor illumination and dye accumulation” value is reported as “illuminates tumor tissue at significant depths”.

Consider `Nc1nc2ncc(CNc3ccc(C(=O)N[C@@H](CCC(=O)O)C(=O)O)cc3)nc2c(=O)[nH]1` [folic acid], for which the Kd in [10] was around 1 nM.
